Columns and labels:
[1] = test system: renal interstitium fibrosis model induced by left ureter ligation; assay: UUO renal interstitium fibrosis model in mice; type: in vivo, C57BL/6J mice; conditions: 20 mg/kg and 3 mg/kg intraperitoneal every other day, day 10; FIG. 9, FIG. 10
Method: In this animal pharmacodynamic study, a renal interstitium fibrosis model was induced by left ureter ligation in mice supplied by KCl BioTech. The efficacy of the surrogate antibody fusion protein 28H1-Trap on renal fibrosis was evaluated in this model. C57BL/6J mice (Shanghai Jihui Laboratory Animal Care Co., Ltd.) aged 8-9 weeks were randomized by weight. On the day of modeling (day 0), the mice in groups 2-4 were anesthetized with isoflurane. The abdominal cavity was opened along the ventral midline, and the left ureter of the animal was ligated. The abdomen was closed and the skin was sutured. The treatment was given intraperitoneally on the day of modeling. The animals in group 1 were anesthetized with isoflurane. The abdominal cavity was opened along the ventral midline and closed immediately, and the skin was sutured. In the next 10 days, the treatments were given intraperitoneally once every other day, and the body weight was measured once every two days. The specific treatments and dosages are shown in the following table: The animals were given an I.P. injection of the test substance on days 0, 2, 4, 6, and 8, and the animals were given the analgesic meloxicam subcutaneously on days 1-3. The body weight was recorded daily. The kidney on the UUO side were scored for fibrosis by Masson staining. […] The degree of fibrosis of the kidney was evaluated (see FIG. 10).

[2] = target: T1, human FAP protein expressed on 293T cells (Homo sapiens, UniProt Q12884); assay: Cell binding assay by flow cytometry, 293T-human FAP cells
T1 construct: expressed in transfected cells; host or cells: 293T cells, PIRES-puro3 vector, puromycin selection
T1 sequence (Q12884 1-760): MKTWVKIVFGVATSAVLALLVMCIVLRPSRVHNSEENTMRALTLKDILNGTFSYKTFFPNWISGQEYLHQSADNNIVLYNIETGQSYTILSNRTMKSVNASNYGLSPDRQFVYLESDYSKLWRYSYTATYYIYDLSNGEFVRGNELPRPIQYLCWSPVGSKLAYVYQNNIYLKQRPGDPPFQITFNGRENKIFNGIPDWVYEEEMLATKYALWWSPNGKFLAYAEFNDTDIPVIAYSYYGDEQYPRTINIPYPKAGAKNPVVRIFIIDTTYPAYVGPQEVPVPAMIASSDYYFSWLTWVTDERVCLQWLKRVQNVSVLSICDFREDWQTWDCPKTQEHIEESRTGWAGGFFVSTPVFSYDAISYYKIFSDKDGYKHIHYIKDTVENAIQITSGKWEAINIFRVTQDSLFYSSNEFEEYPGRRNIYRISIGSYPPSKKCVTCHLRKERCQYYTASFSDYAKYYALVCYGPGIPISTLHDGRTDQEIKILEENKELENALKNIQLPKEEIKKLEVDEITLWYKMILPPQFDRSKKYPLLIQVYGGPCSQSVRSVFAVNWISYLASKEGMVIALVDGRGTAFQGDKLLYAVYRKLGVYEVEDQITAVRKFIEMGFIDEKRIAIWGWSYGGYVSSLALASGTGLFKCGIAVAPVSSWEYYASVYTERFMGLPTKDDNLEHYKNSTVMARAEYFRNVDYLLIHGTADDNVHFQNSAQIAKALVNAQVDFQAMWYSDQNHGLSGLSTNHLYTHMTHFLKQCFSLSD
Method: Whether the humanized antibody of the present disclosure can bind to human FAP protein stably expressed on the surface of 293T cells was determined by a cell binding assay. Firstly, the sequences encoding human FAP protein (NM_004460.2, SEQ ID NO: 31) and cynomolgus FAP (XM_005573320.2, SEQ ID NO: 32) were cloned into expression vector PIRES-puro3 (Clontech, Cat #631619) […]. The vectors were used to transfect 293T cells. […]
The human FAP antibodies (huF19-LG and sibrotuzumab) were 4-fold serially diluted from a starting concentration of 200 nM to a total of 8 concentrations and added to the cells for co-incubation at 4° C. for 30 min. […] The cells were washed twice with PBS and then resuspended, and finally, fluorescence signals were detected using the […] (BD Bioscience) flow cytometer.
Whether the mutant antibody in the present disclosure can bind to human or cynomolgus FAP protein stably expressed on the surface of 293T cells was determined by a cell binding assay. […] The cells were washed twice with PBS and then resuspended, and finally, fluorescence signals were detected using the […] (BD Bioscience) flow cytometer. […]

[3] = test system: bilateral idiopathic pulmonary fibrosis model; assay: Bleomycin-induced idiopathic pulmonary fibrosis (IPF) model in mice; type: in vivo, C57BL/6 mice
Method: In this animal pharmacodynamic study, a bilateral idiopathic pulmonary fibrosis model was induced using bleomycin instillation into the trachea of mice supplied by KCl BioTech. The efficacy of the surrogate antibody fusion protein 28H1-Trap on pulmonary fibrosis was evaluated in this model. C57BL/6 mice (Cavens Biogle (Suzhou) Co., Ltd.) aged 8-9 weeks were treated from the day of modeling and the induced pulmonary fibrosis model was established by tracheal instillation of bleomycin after the treatment. In the next three weeks, intraperitoneal doses were given twice weekly, and the body weight was measured once every two days. The specific treatments and dosages are shown in the following table: Mice were euthanized at the end of study. At the end of study, both lungs were collected from 15 surviving animals in each group (6 in the normal group) and fixed by formalin perfusion. Histological sections were made, stained with Masson, imaged (FIGS. 7A-H), and graded by pulmonary fibrosis scores. Pathological staining results are shown in FIG. 7, where black arrows indicate intact alveolar structures and the dark interstitial parts indicate collagen accumulation.

28H1-Trap: pharmacodynamic surrogate fusion protein: anti-FAP antibody 28H1 (WO2012020006) fused to TGFβR2 extracellular domain; heavy chain SEQ ID NO: 29, light chain SEQ ID NO: 28
kidney fibrosis score by Masson staining [1]: significant dose-dependent ameliorative effect on the fibrosis in the renal cortex of the kidney
binding to human FAP protein expressed on engineered 293T cells (FACS) [2]: confirmed to bind to human FAP at cellular level
pulmonary fibrosis grading (Ashcroft scoring) ([3]; 20 mg/kg and 3 mg/kg vs modeling group, FIG. 8B): reduced the pulmonary fibrotic lesions in a dose-dependent manner
grade of pulmonary fibrotic lesions (Masson staining, pathological sections) ([3]; 20 mg/kg intraperitoneal twice weekly, 21 days, vs modeling group, FIG. 7): could reduce the grade of pulmonary fibrotic lesions
pulmonary fibrosis staining scoring ([3]; high dose (20 mg/kg) vs modeling group, FIG. 8A): can reduce fibrotic lesions in the lungs at a high dose
